Measured values as given in PubChem BioAssay (NCI).
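Values below derive from 48-hour exposures of cells grown in 96-well plates, with endpoints linearly interpolated between the two concentrations bracketing the appropriate inhibition level. The concentration for full growth arrest is given as TGI.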

Assays:
Assay in all cases: NCI-60 cell line screen, 48 h
786-0 renal = system: 786-0 renal
A498 renal = system: A498 renal
A549 NSCLC = system: A549 NSCLC
ACHN renal = system: ACHN renal
CAKI-1 renal = system: CAKI-1 renal
CCRF-CEM leukemia = system: CCRF-CEM leukemia
COLO 205 colon = system: COLO 205 colon
DLD-1 colon = system: DLD-1 colon
DMS 114 small cell lung = system: DMS 114 small cell lung
EKVX NSCLC = system: EKVX NSCLC
HCC-2998 colon = system: HCC-2998 colon
HL-60(TB) leukemia = system: HL-60(TB) leukemia
HOP-62 NSCLC = system: HOP-62 NSCLC
HOP-92 NSCLC = system: HOP-92 NSCLC
HT29 colon = system: HT29 colon
IGROV1 ovarian = system: IGROV1 ovarian
K-562 leukemia = system: K-562 leukemia
KM12 colon = system: KM12 colon
KM20L2 colon = system: KM20L2 colon
LOX IMVI melanoma = system: LOX IMVI melanoma
LXFL 529 NSCLC = system: LXFL 529 NSCLC
M14 melanoma = system: M14 melanoma
M19-MEL melanoma = system: M19-MEL melanoma
MALME-3M melanoma = system: MALME-3M melanoma
MOLT-4 leukemia = system: MOLT-4 leukemia
NCI-H226 lung = system: NCI-H226 lung
NCI-H23 lung = system: NCI-H23 lung
NCI-H460 lung = system: NCI-H460 lung
NCI-H522 lung = system: NCI-H522 lung
OVCAR-3 ovarian = system: OVCAR-3 ovarian
OVCAR-4 ovarian = system: OVCAR-4 ovarian
OVCAR-5 ovarian = system: OVCAR-5 ovarian
OVCAR-8 ovarian = system: OVCAR-8 ovarian
RPMI-8226 leukemia = system: RPMI-8226 leukemia
RXF 393 renal = system: RXF 393 renal
SF-268 CNS = system: SF-268 CNS
SF-295 CNS = system: SF-295 CNS
SF-539 CNS = system: SF-539 CNS
SK-MEL-2 melanoma = system: SK-MEL-2 melanoma
SK-MEL-28 melanoma = system: SK-MEL-28 melanoma
SK-MEL-5 melanoma = system: SK-MEL-5 melanoma
SK-OV-3 ovarian = system: SK-OV-3 ovarian
SN12C renal = system: SN12C renal
SNB-19 CNS = system: SNB-19 CNS
SNB-75 CNS = system: SNB-75 CNS
SNB-78 CNS = system: SNB-78 CNS
SW-620 colon = system: SW-620 colon
TK-10 renal = system: TK-10 renal
U251 CNS = system: U251 CNS
UACC-257 melanoma = system: UACC-257 melanoma
UO-31 renal = system: UO-31 renal
XF 498 CNS = system: XF 498 CNS
DMS 273 small cell lung = system: DMS 273 small cell lung
HCT-116 colon = system: HCT-116 colon
HCT-15 colon = system: HCT-15 colon
SR leukemia = system: SR leukemia
UACC-62 melanoma = system: UACC-62 melanoma

CC1=C(C(=O)Nc2cc(F)c(F)cc2F)C(c2ccc3c(c2)OCO3)C(C(=O)Nc2cc(F)c(F)cc2F)=C(C)N1
TGI (786-0 renal): 42.9 µM | TGI (A498 renal): 65.2 µM | TGI (A549 NSCLC): 79.1 µM | TGI (ACHN renal): 60.6 µM | TGI (CAKI-1 renal): 43.5 µM | TGI (CCRF-CEM leukemia): 55.1 µM | TGI (COLO 205 colon): 53.6 µM | TGI (DLD-1 colon): 75.1 µM | TGI (DMS 114 small cell lung): 52.1 µM | TGI (EKVX NSCLC): 73.1 µM | TGI (HCC-2998 colon): 39 µM | TGI (HL-60(TB) leukemia): 36 µM | TGI (HOP-62 NSCLC): 65.1 µM | TGI (HOP-92 NSCLC): 25 µM | TGI (HT29 colon): 61.4 µM | TGI (IGROV1 ovarian): > 100 µM | TGI (K-562 leukemia): 53.8 µM | TGI (KM12 colon): 46 µM | TGI (KM20L2 colon): 62.5 µM | TGI (LOX IMVI melanoma): 35.3 µM | TGI (LXFL 529 NSCLC): 80.4 µM | TGI (M14 melanoma): > 100 µM | TGI (M19-MEL melanoma): 67 µM | TGI (MALME-3M melanoma): 69.4 µM | TGI (MOLT-4 leukemia): 46.5 µM | TGI (NCI-H226 lung): 85.3 µM | TGI (NCI-H23 lung): 71.1 µM | TGI (NCI-H460 lung): 78.7 µM | TGI (NCI-H522 lung): 41.6 µM | TGI (OVCAR-3 ovarian): 40.6 µM | TGI (OVCAR-4 ovarian): 77.7 µM | TGI (OVCAR-5 ovarian): 59.9 µM | TGI (OVCAR-8 ovarian): > 100 µM | TGI (RPMI-8226 leukemia): 52.9 µM | TGI (RXF 393 renal): 35.6 µM | TGI (SF-268 CNS): > 100 µM | TGI (SF-295 CNS): 48.9 µM | TGI (SF-539 CNS): 87 µM | TGI (SK-MEL-2 melanoma): 46.7 µM | TGI (SK-MEL-28 melanoma): > 100 µM | TGI (SK-MEL-5 melanoma): 52.6 µM | TGI (SK-OV-3 ovarian): 65.3 µM | TGI (SN12C renal): 72.7 µM | TGI (SNB-19 CNS): > 100 µM | TGI (SNB-75 CNS): 45.4 µM | TGI (SNB-78 CNS): 62.9 µM | TGI (SW-620 colon): > 100 µM | TGI (TK-10 renal): 64.8 µM | TGI (U251 CNS): > 100 µM | TGI (UACC-257 melanoma): 71.5 µM | TGI (UO-31 renal): 40.8 µM | TGI (XF 498 CNS): 26.8 µM

CN(C)C(=O)Nc1c([N+](=O)[O-])cc(C(F)(F)F)cc1[N+](=O)[O-]
TGI (786-0 renal): > 100 µM | TGI (A498 renal): > 100 µM | TGI (A549 NSCLC): > 100 µM | TGI (ACHN renal): > 100 µM | TGI (CAKI-1 renal): > 100 µM | TGI (CCRF-CEM leukemia): > 100 µM | TGI (COLO 205 colon): 69.3 µM | TGI (DMS 273 small cell lung): > 100 µM | TGI (EKVX NSCLC): > 100 µM | TGI (HCT-116 colon): > 100 µM | TGI (HCT-15 colon): > 100 µM | TGI (HL-60(TB) leukemia): 48 µM | TGI (HOP-62 NSCLC): > 100 µM | TGI (HOP-92 NSCLC): > 100 µM | TGI (HT29 colon): > 100 µM | TGI (IGROV1 ovarian): > 100 µM | TGI (K-562 leukemia): > 100 µM | TGI (KM12 colon): > 100 µM | TGI (KM20L2 colon): 59.3 µM | TGI (LOX IMVI melanoma): > 100 µM | TGI (LXFL 529 NSCLC): > 100 µM | TGI (M14 melanoma): > 100 µM | TGI (MOLT-4 leukemia): > 100 µM | TGI (NCI-H226 lung): > 100 µM | TGI (NCI-H23 lung): > 100 µM | TGI (NCI-H460 lung): > 100 µM | TGI (NCI-H522 lung): 77.5 µM | TGI (OVCAR-3 ovarian): 53.7 µM | TGI (OVCAR-4 ovarian): > 100 µM | TGI (OVCAR-5 ovarian): > 100 µM | TGI (OVCAR-8 ovarian): > 100 µM | TGI (RPMI-8226 leukemia): > 100 µM | TGI (RXF 393 renal): > 100 µM | TGI (SF-268 CNS): > 100 µM | TGI (SF-295 CNS): > 100 µM | TGI (SF-539 CNS): > 100 µM | TGI (SK-MEL-2 melanoma): > 100 µM | TGI (SK-MEL-28 melanoma): > 100 µM | TGI (SK-MEL-5 melanoma): > 100 µM | TGI (SK-OV-3 ovarian): > 100 µM | TGI (SN12C renal): > 100 µM | TGI (SNB-19 CNS): > 100 µM | TGI (SNB-75 CNS): > 100 µM | TGI (SNB-78 CNS): > 100 µM | TGI (SR leukemia): > 100 µM | TGI (SW-620 colon): > 100 µM | TGI (TK-10 renal): > 100 µM | TGI (U251 CNS): > 100 µM | TGI (UACC-257 melanoma): 84.3 µM | TGI (UACC-62 melanoma): > 100 µM | TGI (UO-31 renal): > 100 µM | TGI (XF 498 CNS): 80.8 µM

Cc1ccc(NC(=O)C(=O)C(C2C(C)CC(=O)C2CC(=O)O)[N+](=O)[O-])cc1 (stereo not drawn)
TGI (786-0 renal): > 100 µM | TGI (A498 renal): > 100 µM | TGI (A549 NSCLC): > 100 µM | TGI (ACHN renal): > 100 µM | TGI (CAKI-1 renal): > 100 µM | TGI (CCRF-CEM leukemia): > 100 µM | TGI (COLO 205 colon): > 100 µM | TGI (DLD-1 colon): > 100 µM | TGI (DMS 114 small cell lung): > 100 µM | TGI (EKVX NSCLC): > 100 µM | TGI (HCC-2998 colon): > 100 µM | TGI (HCT-116 colon): > 100 µM | TGI (HCT-15 colon): > 100 µM | TGI (HL-60(TB) leukemia): > 100 µM | TGI (HOP-62 NSCLC): > 100 µM | TGI (HOP-92 NSCLC): > 100 µM | TGI (HT29 colon): > 100 µM | TGI (IGROV1 ovarian): > 100 µM | TGI (K-562 leukemia): > 100 µM | TGI (KM12 colon): > 100 µM | TGI (KM20L2 colon): > 100 µM | TGI (LOX IMVI melanoma): > 100 µM | TGI (LXFL 529 NSCLC): > 100 µM | TGI (M14 melanoma): > 100 µM | TGI (MALME-3M melanoma): > 100 µM | TGI (MOLT-4 leukemia): > 100 µM | TGI (NCI-H226 lung): > 100 µM | TGI (NCI-H23 lung): > 100 µM | TGI (NCI-H460 lung): > 100 µM | TGI (OVCAR-3 ovarian): > 100 µM | TGI (OVCAR-4 ovarian): > 100 µM | TGI (OVCAR-5 ovarian): > 100 µM | TGI (OVCAR-8 ovarian): > 100 µM | TGI (RPMI-8226 leukemia): > 100 µM | TGI (RXF 393 renal): > 100 µM | TGI (SF-268 CNS): > 100 µM | TGI (SF-295 CNS): > 100 µM | TGI (SF-539 CNS): > 100 µM | TGI (SK-MEL-2 melanoma): > 100 µM | TGI (SK-MEL-28 melanoma): > 100 µM | TGI (SK-MEL-5 melanoma): > 100 µM | TGI (SK-OV-3 ovarian): > 100 µM | TGI (SN12C renal): > 100 µM | TGI (SNB-19 CNS): > 100 µM | TGI (SNB-75 CNS): > 100 µM | TGI (SNB-78 CNS): > 100 µM | TGI (SR leukemia): > 100 µM | TGI (SW-620 colon): > 100 µM | TGI (TK-10 renal): > 100 µM | TGI (U251 CNS): > 100 µM | TGI (UACC-257 melanoma): > 100 µM | TGI (UACC-62 melanoma): > 100 µM | TGI (UO-31 renal): > 100 µM | TGI (XF 498 CNS): > 100 µM
